This note sets out measurements from patent US6194465A, “Benzamide therapeutics for the treatment of inflammatory bowel disease” (priority 1999, dated 2001).

In the assay the test system is human brain cell aggregates. The assay can be described thus: TNF-α induced apoptosis in human brain cell aggregates. It is filed as cell-based. Particulars: compound 1 hour prior to TNF-α, 48 h, read-out: lowest concentration shown to protect against TNF-α induced apoptosis. How it is done: This test is used to evaluate the potential of Compound A to prevent TNF-α induced apoptosis.
Compound A was evaluated in an in vitro model of TNF-α induced toxicity (see Pulliam et al. J. Neurosci. Res. 21:521-530 (1998)). In this model, human brain cell aggregates from fetal tissue were treated with TNF-α which caused an apoptotic cell death. Brain cell aggregates prepared from 1 brain were incubated for 10-12 days before experimentation. Aggregates were weighed out (100 mg/flask) and aliquoted into 10 mL flasks. TNF-α was used at a concentration of 1 ng. Compound A was added 1 hour prior to the TNF-α. Experiments included untreated brain aggregates, TNF-α-treated brain aggregates, TNF-α-+test compound treated aggregates and test compound treated aggregates. After TNF-α was added, aggregates were incubated for an additional 48 h. After this time, brain aggregates were centrifuged for 5 min at 500 rpm. The supernatant was removed and the pellet was lysed for determination of programmed cell death. (Boeringer Mannheim Cell Death Kit ELISA).

Molecules are shown by their SMILES.

With `CC(=O)Nc1ccc(C(=O)NC(C)(C)C)cc1` [Compound A, N-tert-butyl-4-acetamidobenzamide], the minimal effective concentration was 0.01 µM.
